This assay relates to HaCaT cells. The assay is described as follows: Retinoic acid treatment of bioprinted psoriasis-like skin model, CK10 immunofluorescence. The following applies: printed stripes of differentiated (cytokine-treated) and non-differentiated HaCaT cells; RA 1 μM in growth media for 20 hrs; versus solvent control. It counts as cell-based, human.

As for `CC1=C(/C=C/C(C)=C/C=C/C(C)=C/C(=O)O)C(C)(C)CCC1` [retinoic acid, all-trans retinoic acid], the “decrease in CK10 expression for the treated samples” value is “approximately 20%”.
